Reference: the NIST ThermoML archive (doi:10.1016/j.jct.2006.03.010)

Experiment: xn = mol fraction of the nth substance listed
Details: 101 kPa, Liquid; for speed of sound: Linear variable-path acoustic interferometer

ClC(Cl)Cl [trichloromethane] + CCCCO
Details | mass density, 298.15 K [kg/m3] | mass density, 308.15 K [kg/m3] | speed of sound, 298.15 K [m/s] | speed of sound, 308.15 K [m/s] | viscosity, 298.15 K [mPa·s] | viscosity, 308.15 K [mPa·s]
x1 = 0.0512 | 836.7 | 828.27 | 1215 | 1190 | 2.407 | 1.883
x1 = 0.1 | 865.9 | 857 | 1198 | 1171 | 2.248 | 1.764
x1 = 0.149 | 895.66 | 886.25 | 1180 | 1153 | 2.056 | 1.628
x1 = 0.2009 | 927.49 | 917.55 | 1163 | 1134 | 1.872 | 1.501
x1 = 0.2506 | 958.3 | 947.84 | 1146 | 1116 | 1.705 | 1.372
x1 = 0.2999 | 989.27 | 978.3 | 1130 | 1099 | 1.543 | 1.26
x1 = 0.3659 | 1031.4 | 1019.75 | 1110 | 1078 | 1.351 | 1.114
x1 = 0.407 | 1057.94 | 1045.83 | 1097 | 1065 | 1.245 | 1.035
x1 = 0.4515 | 1087.02 | 1074.42 | 1085 | 1051 | 1.139 | 0.957
x1 = 0.4997 | 1118.91 | 1105.67 | 1071 | 1037 | 1.041 | 0.886
x1 = 0.5502 | 1152.78 | 1138.99 | 1058 | 1024 | 0.945 | 0.815
x1 = 0.6012 | 1187.46 | 1173.05 | 1045 | 1011 | 0.877 | 0.76
x1 = 0.6527 | 1223.02 | 1207.99 | 1033 | 998 | 0.804 | 0.71
x1 = 0.7021 | 1257.69 | 1241.99 | 1022 | 987 | 0.755 | 0.67
x1 = 0.7519 | 1293.2 | 1276.84 | 1013 | 978 | 0.715 | 0.643
x1 = 0.8021 | 1329.4 | 1312.4 | 1004 | 969 | 0.67 | 0.607
x1 = 0.8518 | 1365.91 | 1348.31 | 997 | 962 | 0.654 | 0.595
x1 = 0.9024 | 1403.63 | 1385.4 | 992 | 956 | 0.614 | 0.565
x1 = 0.951 | 1440.79 | 1421.97 | 987 | 952 | 0.596 | 0.546
x1 = 1 | 1478.82 | 1459.45 | 985 | 950 | 0.556 | 0.513

ClC(Cl)Cl [trichloromethane] + CCCO
Details | mass density, 298.15 K [kg/m3] | mass density, 308.15 K [kg/m3] | speed of sound, 298.15 K [m/s] | speed of sound, 308.15 K [m/s] | viscosity, 298.15 K [mPa·s] | viscosity, 308.15 K [mPa·s]
x1 = 0.0521 | 838.68 | 829.81 | 1190 | 1155 | 1.84 | 1.452
x1 = 0.0995 | 872.8 | 863.45 | 1171 | 1136 | 1.734 | 1.373
x1 = 0.1503 | 909.09 | 899.13 | 1153 | 1117 | 1.611 | 1.283
x1 = 0.2009 | 944.84 | 934.26 | 1136 | 1099 | 1.492 | 1.196
x1 = 0.2497 | 979.01 | 967.92 | 1119 | 1082 | 1.374 | 1.111
x1 = 0.3057 | 1017.84 | 1006.01 | 1102 | 1064 | 1.235 | 1.011
x1 = 0.3499 | 1048.26 | 1036.01 | 1089 | 1052 | 1.155 | 0.952
x1 = 0.4031 | 1084.7 | 1071.81 | 1074 | 1036 | 1.049 | 0.886
x1 = 0.4509 | 1117.15 | 1103.72 | 1061 | 1023 | 0.968 | 0.818
x1 = 0.5055 | 1154.04 | 1139.98 | 1046 | 1009 | 0.885 | 0.76
x1 = 0.554 | 1186.48 | 1171.86 | 1035 | 998 | 0.822 | 0.714
x1 = 0.5994 | 1216.69 | 1201.5 | 1025 | 988 | 0.776 | 0.679
x1 = 0.651 | 1250.99 | 1235.18 | 1015 | 977 | 0.727 | 0.647
x1 = 0.7033 | 1285.41 | 1269.07 | 1006 | 968 | 0.705 | 0.618
x1 = 0.7505 | 1316.56 | 1299.61 | 999 | 961 | 0.666 | 0.602
x1 = 0.7999 | 1348.87 | 1331.42 | 993 | 955 | 0.64 | 0.585
x1 = 0.8507 | 1382.01 | 1363.98 | 987 | 950 | 0.625 | 0.572
x1 = 0.9002 | 1414.19 | 1395.63 | 984 | 947 | 0.605 | 0.557
x1 = 0.9484 | 1445.46 | 1426.51 | 983 | 947 | 0.586 | 0.539
x1 = 1 | 1478.82 | 1459.45 | 985 | 950 | 0.556 | 0.513
